Data: paper PMC11487390, “Design and Synthesis of 1,3-Diarylpyrazoles and Investigation of Their Cytotoxicity and Antiparasitic Profile” (International Journal of Molecular Sciences, 2024)
Where a name gives a salt, the structure may show the parent alone. Read-outs that look alike come from different tables or passages of the source.

Assays:
[1] = Cytotoxicity assay, MRC-5SV2 cells, resazurin, 3 days; format: cell-based; conditions: human, MRC-5SV2 human lung fibroblast cells, MRC-5 cells, highest concentration 64 µM
Protocol: The series of final products (13–69) was investigated in vitro on the human fetal lung fibroblast cell line MRC-5 (Table 1) to assess cytotoxicity toward normal (i.e., non-malignant) human cells. […] As explained earlier, these are important pathogens for humans or cattle (T. b. brucei) and a persistent need for new therapeutics exists for these parasites. As a part of the antiparasitic tests, cytotoxicity against primary mouse macrophages (PMMs) was also evaluated. These murine cells serve as host cells for parasites in the L. infantum assay. Therefore, the murine macrophage assay not only offers additional cytotoxicological insight but is also essential to interpreting the readout of the L. infantum assay.
(§1) The MRC-5SV2 human lung fibroblast cell line was cultured in MEM + Earle’s salts-medium, supplemented with 2 mM L-glutamine, 16.5 mM NaHCO3, and 5% inactivated fetal calf serum. For evaluating the antileishmanial activity, the L. infantum MHOM/MA(BE)/67 strain was used. This strain was maintained in a Golden hamster (Mesocricetus auratus). Amastigotes were collected from the spleen of an infected donor hamster using differential centrifugation. Primary peritoneal mouse macrophages were used as host cells and were collected 2 days after peritoneal stimulation with a 2% potato starch suspension. For the intracellular T. cruzi assays, the Tulahuen CL2 strain was used that expresses β-galactosidase. The strain was maintained in MRC-5SV2 cells in MEM medium. The T. b. brucei Squib 427 strain or T. b. rhodesiense STIB-900 strain was used for screening against the extracellular African trypanosomes. The strains were maintained in Hirumi’s Modified Iscove’s medium-9 (HMI-9), supplemented with 10% inactivated fetal calf serum. All cultures and assays were performed at 37 °C with 5% CO2.
(§2) Compound stock solutions were prepared in 100% DMSO at 20 mM. The compounds were serially pre-diluted by robotic plate production (4-fold) in DMSO followed by a further (intermediate) dilution in demineralized water to assure a final in-test DMSO concentration of <1%. Identical test plates containing 10 µL of the different concentrations of each compound were produced for the different assays. For the cytotoxicity assays, 5 concentrations per compound were tested (64–16–4–1–0.25 µM). For the parasitic assays, 10 concentrations per compound were tested, ranging from 64 µM to 0.2 nM.
Assays were performed in sterile 96-well microtiter plates, each well containing 10 µL of the watery compound dilutions together with 190 µL of MRC-5SV2 inoculum (1.5 × 10^5 cells/mL). Cell growth was compared to untreated control wells (100% cell growth) and medium-control wells (0% cell growth). After 3 days incubation, MRC-5 viability was assessed fluorimetrically after addition of 50 μL resazurin per well (final concentration of 10 µg mL^−1). After 4 h at 37 °C, fluorescence was measured (λex 550 nm, λem 590 nm). The results were expressed as % reduction in cell growth/viability compared to positive (100% growth–0% inhibition) and negative (0% growth–100% inhibition) control wells from which EC50 values (50% effective concentrations) were derived using an excel macro that calculates the interpolation of the concentrations corresponding to the flanking points, just above and just below 50% inhibition.

[2] = test system: Trypanosoma cruzi Tulahuen CL2 strain; test: Intracellular T. cruzi assay in MRC-5 cells (β-galactosidase/CPRG, 7 days); format: cell-based; conditions: Trypanosoma cruzi, TULAHUEN, MRC5, 168 h, intracellular in MRC-5 cells
Protocol: as §1, §2
MRC-5 cells were infected in 96-well plates using a harvested T. cruzi inoculum (4 × 10^3 MRC-5 cells/well + 4 × 10^4 parasites/well) and exposed to 10 µL of the compound dilutions (200 µL/well total volume). Parasite growth determined after 7 days of incubation and compared to untreated infected controls following the addition of the substrate CPRG (chlorophenolred ß-D-galactopyranoside): 50 µL/well of a stock solution containing 15.2 mg CPRG + 250 µL Nonidet in 100 mL PBS. The absorbance was measured spectrophotometrically at 540 nm after 4 h incubation at 37 °C and EC50 values were calculated.

[3] = test system: L. infantum MHOM/MA(BE)/67 strain; test: L. infantum intracellular amastigote assay in PMM (Giemsa, 5 days); format: cell-based, Leishmania infantum
Protocol: as §1, §2
Primary peritoneal mouse macrophages (PMMs) were prepared in RPMI-1640 medium, supplemented with 2 mM L-glutamine, 16.5 mM NaHCO3, and 5% inactivated fetal calf serum. The macrophages are infected after 48 h with spleen-derived L. infantum amastigotes (3 × 10^4 PMM + 4.5 × 10^5 parasites/well). The compounds were added after 2 h of infection. After 5 days incubation, parasite burdens (mean number of amastigotes/macrophage) were assessed microscopically after staining with a 10% Giemsa solution and EC50 values were calculated.

[4] = test system: T. b. brucei Squib 427 strain; test: T. b. brucei growth assay (resazurin, 3 days); format: cell-based, Trypanosoma brucei brucei; conditions: Trypanosoma brucei, 72 h
Protocol: as §1, §2
(§3) Parasite suspensions (1.5 × 10^4 T. b. brucei/well or 4 × 10^3 T. b. rhodesiense/well) in HMI-9 medium were exposed in a total volume of 200 µL to 10 µL of the compound dilutions Parasite growth was assessed fluorimetrically after 3 days of incubation by the addition of 50 µL resazurin per well. After 6 h (T. b. rhodesiense) or 24 h (T. b. brucei) at 37 °C, fluorescence was measured (λex 550 nm, λem 590 nm), from which viability and EC50 values could be determined.

[5] = test system: T. b. rhodesiense STIB-900 strain; test: T. b. rhodesiense growth assay (resazurin, 3 days); format: cell-based, Trypanosoma brucei rhodesiense; conditions: Trypanosoma brucei, RHODESIENSE, 72 h
Protocol: as §1, §2, §3

[6] = Leishmania infantum, 120 h, amastigotes in PMM, 5 days, read-out: L. inf. (EC50)
[7] = 3 days, read-out: T. b. bruc. (EC50)
[8] = 3 days, read-out: T. b. rhod. (EC50)

SMILES | EC50 at 3 days [1] | EC50 [2] | EC50 ([3]; Leishmania infantum, 120 h, read-out: L. inf. (EC50, µM), amastigotes in PMM, 5 days) | EC50 ([3]; read-out: L. inf. (EC50), amastigotes in PMM, 5 days) | EC50 ([4]; read-out: T. b. bruc. (EC50, µM), 3 days) | EC50 ([5]; read-out: T. b. rhod. (EC50, µM), 3 days) | EC50 [3, 6] | EC50 [4, 7] | EC50 [5, 8]
O=C(NCCN1CCOCC1)c1cn(-c2ccccc2)nc1-c1ccc2c(c1)OCCO2 [Compound 44, 3-(2,3-dihydrobenzo[b][1,4]dioxin-6-yl)-N-(2-morpholinoethyl)-1-phenyl-1H-pyrazole-4-carboxamide hydrochloride] | > 64 µM | 64 µM | 9.51 µM | 8.3 µM | > 64 µM | 19 µM |  |  | 
Fc1ccc(COCc2cn(-c3ccccc3)nc2-c2ccc3c(c2)OCCO3)cc1 [Compound 45, 3-(2,3-dihydrobenzo[b][1,4]dioxin-6-yl)-4-(((4-fluorobenzyl)oxy)methyl)-1-phenyl-1H-pyrazole] | > 64 µM | 5.51 µM |  |  |  |  | 22.6 µM | 27.2 µM | 7.16 µM
c1ccc(-n2cc(COCc3cn(-c4ccccc4)nc3-c3ccc4c(c3)OCCO4)nn2)cc1 [Compound 46, 4-(((3-(2,3-dihydrobenzo[b][1,4]dioxin-6-yl)-1-phenyl-1H-pyrazol-4-yl)methoxy)methyl)-1-phenyl-1H-1,2,3-triazole] | > 64 µM | > 64 µM |  |  |  |  | 32.5 µM | 9.04 µM | 2.18 µM
Fc1ccc(-n2cc(COCc3cn(-c4ccccc4)nc3-c3ccc4c(c3)OCCO4)nn2)cc1 [Compound 47, 4-(((3-(2,3-dihydrobenzo[b][1,4]dioxin-6-yl)-1-phenyl-1H-pyrazol-4-yl)methoxy)methyl)-1-(4-fluorophenyl)-1H-1,2,3-triazole] | 51.5 µM | 64 µM |  |  |  |  | > 64 µM | 55.9 µM | 5.56 µM
c1ccc(Cn2cc(COCc3cn(-c4ccccc4)nc3-c3ccc4c(c3)OCCO4)nn2)cc1 [Compound 48, 1-benzyl-4-(((3-(2,3-dihydrobenzo[b][1,4]dioxin-6-yl)-1-phenyl-1H-pyrazol-4-yl)methoxy)methyl)-1H-1,2,3-triazole] | > 64 µM | > 64 µM |  |  |  |  | 32.5 µM | > 64 µM | 1.78 µM
c1ccc(Cc2cn(-c3ccccc3)nc2-c2ccc3c(c2)OCCO3)cc1 [Compound 49, 4-benzyl-3-(2,3-dihydrobenzo[b][1,4]dioxin-6-yl)-1-phenyl-1H-pyrazole] | 59.5 µM | 7.35 µM |  |  |  |  | 38.1 µM | 29.3 µM | 16.5 µM
Clc1ccc(Cc2cn(-c3ccccc3)nc2-c2ccc3c(c2)OCCO3)cc1 [Compound 50, 4-(4-chlorobenzyl)-3-(2,3-dihydrobenzo[b][1,4]dioxin-6-yl)-1-phenyl-1H-pyrazole] | > 64 µM | 7.53 µM |  |  |  |  | 12.7 µM | 27.2 µM | 8.52 µM
FCc1cn(-c2ccccc2)nc1-c1ccc2c(c1)OCCO2 [Compound 52, 3-(2,3-dihydrobenzo[b][1,4]dioxin-6-yl)-4-(fluoromethyl)-1-phenyl-1H-pyrazole] | 22.6 µM | 23.9 µM |  |  |  |  | > 64 µM | > 64 µM | 27.1 µM
